Paper PMC4153658, “A Pentasymmetric Open Channel Blocker for Cys-Loop Receptor Channels” (PLoS ONE, 2014)
“And” between values parts separate entries of the source, which are not always exact repeats. Identical values can stand only once. Like-named read-outs stand apart in the source and are kept apart here.

Tests used:
[1] = molecular target: T1, α1β2γ2 rat GABAA receptors (Rattus norvegicus, UniProt P18508+P62813+P63138); type: cell-based; settings: for IC50: GABA EC10
T1 construct: expressed in transfected cells; host or cells: Xenopus laevis oocytes, cRNA injection
Method: (§1) Capped cRNAs were synthesized from the linearized plasmids. A poly-A tail of about 400 residues was added to each transcript using yeast poly-A polymerase. The concentration of the cRNA was quantified on a formaldehyde gel using Radiant Red stain for visualization of the RNA. Known concentrations of RNA ladder were loaded as standard on the same gel. cRNAs were precipitated in ethanol/isoamylalcohol 19∶1, the dried pellet dissolved in water and stored at −80°C. Xenopus oocytes were prepared, injected and defollicated as described previously (Research approved by the Kantonstierarzt, Kantonaler Veterinärdienst Bern (Animal research permit BE98/12)). Briefly, Xenopus laevis oocytes were injected with 50 nL of the cRNA solution containing wild type or mutated α1, β2 and γ2 subunits at a concentration of 10 nM: 10 nM: 50 nM and then incubated in modified Barth's solution at 18°C for at least 24 h before the measurements. […] Currents were measured using a home-built two-electrode voltage clamp amplifier in combination with a XY-recorder or digitized using a PowerLab 2/20 (AD Instruments) using the computer program Chart. Tests with a model oocyte were performed to ensure linearity in the larger current range. […] Similar experiments were performed with picrotoxin. Due to the difficulty of washing out picrotoxin out from the oocytes two different oocytes were used to test the inhibition before and after the treatment with the cysteine reactive compound. Inhibition after treatment was divided by % inhibition before treatment. To test the ability of PCCP^− to protect the engineered cysteines from covalent modification by MTSET^+, we used the same sequence of perfusion except that MTSET^+ was co-applied with 1 mM PCCP^−. Results were obtained on 3–4 single oocytes for each receptor.

[2] = molecular target: T2, α1T261Cβ2γ2 GABAA receptor (Rattus norvegicus, UniProt P18508+P62813+P63138, T288C); test: Two-electrode voltage clamp, mutant α1T261Cβ2γ2 in Xenopus oocytes; type: cell-based; settings: read-out: IC50 mean ± SD for inhibition of GABA-activated current
T2 construct: expressed in transfected cells; host or cells: Xenopus laevis oocytes, cRNA injection
Method: as §1, with “Due to the difficulty of washing out picrotoxin out from the oocytes two different oocytes were used to test the inhibition before and after the treatment with the cysteine reactive compound. Inhibition after treatment was divided by % inhibition before treatment. To test the ability of PCCP^− to protect the engineered cysteines from covalent modification by MTSET^+, we used the same sequence of perfusion except that MTSET^+ was co-applied with 1 mM PCCP^−. Results were obtained on 3–4 single oocytes for each receptor.” left out

[3] = molecular target: T3, α1V256Cβ2γ2 GABAA receptor (Rattus norvegicus, UniProt P18508+P62813+P63138, V283C); test: Two-electrode voltage clamp, mutant α1V256Cβ2γ2 in Xenopus oocytes; type: cell-based; settings: for IC50: read-out: IC50 mean ± SD for inhibition of GABA-activated current
T3 construct: expressed in transfected cells; host or cells: Xenopus laevis oocytes, cRNA injection
Method: as §1

[4] = system: Glycine homomeric receptors; test: Inhibition of homomeric glycine receptors expressed in Xenopus oocytes; type: cell-based; settings: compared with GABAA receptors
[5] = molecular target: T4, α1β2δ rat GABAA receptors (Rattus norvegicus, UniProt P18506+P62813+P63138); test: Concentration inhibition curve, α1β2δ GABAA receptors in Xenopus oocytes; type: cell-based; settings: GABA EC10; n = 4
T4 construct: expressed in transfected cells; host or cells: Xenopus laevis oocytes, cRNA injection

[6] = molecular target: T5, α1L263Cβ2γ2 GABAA receptor (Rattus norvegicus, UniProt P18508+P62813+P63138, L290C); test: Two-electrode voltage clamp, mutant α1L263Cβ2γ2 in Xenopus oocytes; type: cell-based
T5 construct: expressed in transfected cells; host or cells: Xenopus laevis oocytes, cRNA injection
Method: as §1, with “Due to the difficulty of washing out picrotoxin out from the oocytes two different oocytes were used to test the inhibition before and after the treatment with the cysteine reactive compound. Inhibition after treatment was divided by % inhibition before treatment. To test the ability of PCCP^− to protect the engineered cysteines from covalent modification by MTSET^+, we used the same sequence of perfusion except that MTSET^+ was co-applied with 1 mM PCCP^−. Results were obtained on 3–4 single oocytes for each receptor.” left out

ELIC = ELIC (Dickeya chrysanthemi, UniProt P0C7B7); settings: read-out: Concentration required for half-maximal inhibition
Method: as §1, with “Due to the difficulty of washing out picrotoxin out from the oocytes two different oocytes were used to test the inhibition before and after the treatment with the cysteine reactive compound. Inhibition after treatment was divided by % inhibition before treatment. To test the ability of PCCP^− to protect the engineered cysteines from covalent modification by MTSET^+, we used the same sequence of perfusion except that MTSET^+ was co-applied with 1 mM PCCP^−. Results were obtained on 3–4 single oocytes for each receptor.” left out

[7] = molecular target: T6, α1β2γ2 rat GABAA receptors (Rattus norvegicus); test: Concentration inhibition curve, first receptor named in b22 / Figure 4A; type: cell-based; settings: GABA EC10; n = 4; receptor printed as α1β2γ2
T6 construct: expressed in transfected cells; host or cells: Xenopus laevis oocytes, cRNA injection
Method: as §1, with “Due to the difficulty of washing out picrotoxin out from the oocytes two different oocytes were used to test the inhibition before and after the treatment with the cysteine reactive compound. Inhibition after treatment was divided by % inhibition before treatment. To test the ability of PCCP^− to protect the engineered cysteines from covalent modification by MTSET^+, we used the same sequence of perfusion except that MTSET^+ was co-applied with 1 mM PCCP^−. Results were obtained on 3–4 single oocytes for each receptor.” left out

[8] = system: RDL Drosophila GABAA receptors, mutation A302S versus wild type; test: Concentration inhibition curves in wild type and mutant RDL Drosophila GABAA receptor; type: cell-based; settings: GABA EC10
[9] = molecular target: T7, α1T267Cβ2γ2 GABAA receptor (Rattus norvegicus, UniProt P18508+P62813+P63138, T294C); test: Two-electrode voltage clamp, mutant α1T267Cβ2γ2 in Xenopus oocytes; type: cell-based
T7 construct: expressed in transfected cells; host or cells: Xenopus laevis oocytes, cRNA injection
Method: as §1, with “Due to the difficulty of washing out picrotoxin out from the oocytes two different oocytes were used to test the inhibition before and after the treatment with the cysteine reactive compound. Inhibition after treatment was divided by % inhibition before treatment. To test the ability of PCCP^− to protect the engineered cysteines from covalent modification by MTSET^+, we used the same sequence of perfusion except that MTSET^+ was co-applied with 1 mM PCCP^−. Results were obtained on 3–4 single oocytes for each receptor.” left out

[10] = system: cysteine mutant α1β2γ2 GABAA receptors; test: Protection of engineered cysteines from covalent modification by MTSET^+ + GABA; type: cell-based, rat; settings: 1 mM inhibitor present during MTSET^+ + GABA application
Method: as §1, with “Due to the difficulty of washing out picrotoxin out from the oocytes two different oocytes were used to test the inhibition before and after the treatment with the cysteine reactive compound. Inhibition after treatment was divided by % inhibition before treatment. To test the ability of PCCP^− to protect the engineered cysteines from covalent modification by MTSET^+, we used the same sequence of perfusion except that MTSET^+ was co-applied with 1 mM PCCP^−. Results were obtained on 3–4 single oocytes for each receptor.” left out

[11] = molecular target: T8, α1A253Cβ2γ2 GABAA receptor (Rattus norvegicus, UniProt P18508+P62813+P63138, A280C); test: Two-electrode voltage clamp, mutant α1A253Cβ2γ2 in Xenopus oocytes; type: cell-based; settings: read-out: IC50 mean ± SD for inhibition of GABA-activated current
T8 construct: expressed in transfected cells; host or cells: Xenopus laevis oocytes, cRNA injection
Method: as §1, with “Due to the difficulty of washing out picrotoxin out from the oocytes two different oocytes were used to test the inhibition before and after the treatment with the cysteine reactive compound. Inhibition after treatment was divided by % inhibition before treatment. To test the ability of PCCP^− to protect the engineered cysteines from covalent modification by MTSET^+, we used the same sequence of perfusion except that MTSET^+ was co-applied with 1 mM PCCP^−. Results were obtained on 3–4 single oocytes for each receptor.” left out

[12] = molecular target: T9, α1T264Cβ2γ2 GABAA receptor (Rattus norvegicus, UniProt P18508+P62813+P63138, T291C); test: Two-electrode voltage clamp, mutant α1T264Cβ2γ2 in Xenopus oocytes; type: cell-based
T9 construct: expressed in transfected cells; host or cells: Xenopus laevis oocytes, cRNA injection
Method: as §1, with “Due to the difficulty of washing out picrotoxin out from the oocytes two different oocytes were used to test the inhibition before and after the treatment with the cysteine reactive compound. Inhibition after treatment was divided by % inhibition before treatment. To test the ability of PCCP^− to protect the engineered cysteines from covalent modification by MTSET^+, we used the same sequence of perfusion except that MTSET^+ was co-applied with 1 mM PCCP^−. Results were obtained on 3–4 single oocytes for each receptor.” left out

[13] = system: Glycine heteromeric receptors; test: Inhibition of heteromeric glycine receptors expressed in Xenopus oocytes; type: cell-based; settings: compared with GABAA receptors
[14] = system: α1T260Cβ2γ2 GABAA receptor; type: cell-based, rat
Method: as §1

[15] = molecular target: T10, α1T260Cβ2γ2 GABAA receptor (Rattus norvegicus, UniProt P18508+P62813+P63138, T287C); type: cell-based; settings: read-out: IC50 mean ± SD for inhibition of GABA-activated current
T10 construct: expressed in transfected cells; host or cells: Xenopus laevis oocytes, cRNA injection
Method: as §1

non-injected oocytes = test: Currents induced in non-injected Xenopus oocytes; type: cell-based, Xenopus laevis; settings: holding potential −80 mV
[16] = wild type, end of 1 min co-application, −80 mV, read-out: IC50 mean ± SD for inhibition of GABA-activated current
[17] = read-out: IC50 mean ± SD for inhibition of GABA-activated current

C[N+](C)(C)CCSS(C)(=O)=O [MTSET^+, reference compound]
Effect of treatment with cysteine reactive compound on wild type receptors ([1]; wild type, preliminary experiments): unaffected

N#CC1=C(C#N)C(C#N)C(C#N)=C1C#N [PCCP^−, pentacyanocyclopentdienyl anion]
IC50 [2]: 46.4 ± 7.25 µM | Change in % inhibition after MTSET^+ + GABA treatment [3]: significant increase | IC50 [3]: 62.2 ± 22.4 µM | Inhibition by PCCP^− [4]: similarly inhibited | Concentrations inducing an open-channel block ([1]; GABA EC1, apparent desensitization and off-current): > 1 µM | Inhibition of recombinant α1β2γ2 GABAA receptors, preliminary evaluation ([1]; compounds 1–4 tested): highly active | Concentrations at which currents were stimulated ([1]; currents elicited by low GABA (EC1), highly variable between oocytes): 0.3 to 10 µM | δ, fraction of the voltage field sensed by the blocker from the outside of the membrane ([1]; estimated with Woodhull equation from IC50 at −120, −80, −40 mV): ~0.7 | IC50 ([1]; membrane potential −40 mV, n = 3, read-out: IC50): 1.8 ± 0.8 µM | IC50 ([1]; membrane potential −80 mV, voltage-dependence experiment, n = 3, read-out: IC50): 6.3 ± 1.3 µM | IC50 ([1]; membrane potential −120 mV, n = 3, read-out: IC50): 16.2 ± 1.3 µM | Shift of the GABA concentration response curve ([1]; presence of 2 µM or 10 µM PCCP^−, currents after 1 min GABA): leftward shift | IC50 [1, 16]: 2.6 µM and 2.58 µM | Effect of MTSET^+ + GABA treatment on the affinity for PCCP^− ([1]; wild type, treatment applied for 1 min): no effect | IC50 [5]: 0.71 ± 0.28 µM | Change in ratio of % inhibition after/before MTSET^+ treatment in the absence of GABA [6]: significant increase | Change in % inhibition after MTSET^+ + GABA treatment ([6]; printed α1T263Cβ2γ2, 5 mM MTSET^+ + 100 µM GABA, inhibitor at about IC50): significant increase | IC50 (ELIC): ~100 µM | IC50 [7]: 12.5 ± 4.8 µM | Reduction in sensitivity (difference in IC50) between wild type and mutant receptors [8]: about 2 fold | Change in % inhibition after MTSET^+ + GABA treatment [9]: significant increase | IC50 [9, 17]: 0.77 ± 0.11 µM | Prevention of the MTSET^+ + GABA induced change in inhibitor sensitivity [10]: could be prevented | IC50 [11]: 2.63 ± 0.31 µM | Change in % inhibition after MTSET^+ + GABA treatment [12]: significant increase | IC50 [12, 17]: 3.15 ± 0.48 µM | Inhibition by PCCP^− [13]: similarly inhibited | Change in % inhibition after MTSET^+ + GABA treatment [14]: significant increase | IC50 [15]: 0.85 ± 0.46 µM | Concentration inducing a current in non-injected oocytes (non-injected oocytes): ≥ 10 µM

picrotoxin [reference compound]
Change in % inhibition after MTSET^+ + GABA treatment [3]: significant decrease | IC50 [3]: 0.74 ± 0.36 µM | IC50 [1, 16]: 2.02 ± 0.89 µM | Reduction in sensitivity (difference in IC50) between wild type and mutant receptors [8]: 7 fold | Prevention of the MTSET^+ + GABA induced change in inhibitor sensitivity [10]: could not be prevented | Change in % inhibition after MTSET^+ + GABA treatment ([14]; α1T260C mutant, 5 mM MTSET^+ + 100 µM GABA, inhibitor at about IC50): significant decrease | IC50 ([15]; α1T260C mutant, GABA EC10, −80 mV, before MTSET^+ treatment): 1.31 ± 0.41 µM
